Where “and” joins values, the source holds several entries; their conditions need not be identical. Equal entries are not always repeated.
Assay: Compound 2 and metabolites in rat plasma, 50 mg/kg PO QD×10
Type: in vivo
Conditions: for Average Concentration: rat plasma
Procedure: The proposed metabolite pathway was determined in vitro, and levels of potential metabolites were measured by LC/MS-MS in rat plasma remaining from the dose rising 10-day repeat dose study in rats. Six potential metabolites were quantified in the low (50 mg/kg) single dose rats. […] Rats were rotated between timepoints to form a composite PK curve. […] A 100 μL aliquot of the supernatant was transferred to the sample plate and mixed with 100 μL of water, then the plate was shaken at 800 rpm for 10 min. 0.5-2 μL supernatant was then injected into a Triple Quad 6500+ for LC-MS/MS analysis. The standard curve was generated at 1-3000 ng/mL for the compounds in rat plasma (EDTA-K2).
The male and female PK parameters were averaged together since there was <2-fold variation between the genders. All values deemed below the level of quantification (BLQ) were excluded from the PK parameters calculations.

[1] = Compound 2 50 mg/kg PO QD×1, 1 h, 50 mg/kg
[2] = Compound 2 50 mg/kg PO QD×1, 2 h, 50 mg/kg
[3] = Compound 2 50 mg/kg PO QD×1, 4 h, 50 mg/kg
[4] = Compound 2 50 mg/kg PO QD×1, 8 h, 50 mg/kg
[5] = Compound 2 50 mg/kg PO QD×1, 24 h, 50 mg/kg
[6] = Compound 2 50 mg/kg PO QD×10, 1 h post tenth dose, 50 mg/kg
[7] = Compound 2 50 mg/kg PO QD×10, 2 h post tenth dose, 50 mg/kg
[8] = Compound 2 50 mg/kg PO QD×10, 4 h post tenth dose, 50 mg/kg
[9] = Compound 2 50 mg/kg PO QD×10, 8 h post tenth dose, 50 mg/kg
[10] = Compound 2 50 mg/kg PO QD×10, 24 h post tenth dose, 50 mg/kg
[11] = Compound 2 50 mg/kg PO QD×10, 48 h post tenth dose, 50 mg/kg
[12] = Compound 2 50 mg/kg PO QD×10, 72 h post tenth dose
[13] = Compound 2 50 mg/kg PO QD×10, 96 h post tenth dose
[14] = Day 1, of Compound 2 AUC0-24, rat, 50 mg/kg PO
[15] = Day 1, rat, Compound 2 50 mg/kg PO
[16] = Day 10, of Compound 2 AUC0-last, rat, 50 mg/kg PO QD×10
[17] = Day 10, rat, Compound 2 50 mg/kg PO QD×10
[18] = Compound 2 50 mg/kg PO QD×1, 1 h
[19] = Compound 2 50 mg/kg PO QD×1, 2 h
[20] = Compound 2 50 mg/kg PO QD×1, 4 h
[21] = Compound 2 50 mg/kg PO QD×1, 8 h
[22] = Compound 2 50 mg/kg PO QD×1, 24 h
[23] = Compound 2 50 mg/kg PO QD×10, 1 h post tenth dose
[24] = Compound 2 50 mg/kg PO QD×10, 2 h post tenth dose
[25] = Compound 2 50 mg/kg PO QD×10, 4 h post tenth dose
[26] = Compound 2 50 mg/kg PO QD×10, 8 h post tenth dose
[27] = Compound 2 50 mg/kg PO QD×10, 24 h post tenth dose
[28] = Compound 2 50 mg/kg PO QD×10, 48 h post tenth dose
[29] = after single (first) 50 mg/kg PO dose of Compound 2
[30] = repeat 10 day administration of Compound 2, 50 mg/kg PO

% of Parent [14] [%]	AUC0-24 [15] [ng·h/mL]	% of Parent [16] [%]	AUC0-last [17] [ng·h/mL]	Average Concentration [18] [ng/mL]	Average Concentration [19] [ng/mL]	Average Concentration [20] [ng/mL]	Average Concentration [21] [ng/mL]	Average Concentration [22]	Average Concentration [23] [ng/mL]	Average Concentration [24] [ng/mL]	Compound	calculated concentration in rat plasma (individual rats) [1]	calculated concentration in rat plasma (individual rats) [2]	calculated concentration in rat plasma (individual rats) [3]	calculated concentration in rat plasma (individual rats) [4]	calculated concentration in rat plasma (individual rats) [6]	calculated concentration in rat plasma (individual rats) [7]	calculated concentration in rat plasma (individual rats) [8]	calculated concentration in rat plasma (individual rats) [9]	calculated concentration in rat plasma (individual rats) [10]	further results
1.6	1241	1.5	1620	41.55	64.98	74.85	73.43	17.88 ng/mL	51.07	53.88	CCn1c(C#CCNc2ccccc2)cc2cc(CNCc3ccccc3)ccc21 [Compound 4, 1-Anilino-3-[5-(benzylaminomethyl)-1-ethyl-1H-indol-2-yl]-2-propyne]	52.4 ng/mL and 34.7 ng/mL and 28.5 ng/mL and 58.3 ng/mL and 44.0 ng/mL and 31.4 ng/mL	98.8 ng/mL and 56.5 ng/mL and 57.4 ng/mL and 65.7 ng/mL and 58.2 ng/mL and 53.3 ng/mL	72.2 ng/mL and 73.2 ng/mL and 96.5 ng/mL and 63.9 ng/mL and 69.0 ng/mL and 74.3 ng/mL	86.8 ng/mL and 66.7 ng/mL and 79.4 ng/mL and 71.8 ng/mL and 72.4 ng/mL and 63.5 ng/mL	48.8 ng/mL and 34.5 ng/mL and 45.1 ng/mL and 46.0 ng/mL and 64.9 ng/mL and 67.1 ng/mL	42.8 ng/mL and 51.0 ng/mL and 62.7 ng/mL and 54.2 ng/mL and 59.7 ng/mL and 52.9 ng/mL	66.1 ng/mL and 54.7 ng/mL and 73.4 ng/mL and 93.1 ng/mL and 83.9 ng/mL and 58.7 ng/mL	53.2 ng/mL and 61.4 ng/mL and 69.2 ng/mL and 67.5 ng/mL and 73.1 ng/mL and 65.4 ng/mL	17.1 ng/mL and 29.4 ng/mL and 19.7 ng/mL and 38.9 ng/mL and 40.7 ng/mL and 40.1 ng/mL	calculated concentration in rat plasma (individual rats) [5]: 17.9 ng/mL and 11.4 ng/mL and 18.4 ng/mL and 24.0 ng/mL and 22.5 ng/mL and 13.1 ng/mL; calculated concentration in rat plasma (individual rats) [11]: BLQ and 1.97 ng/mL and 1.33 ng/mL and 4.63 ng/mL and 2.28 ng/mL and 2.67 ng/mL; calculated concentration in rat plasma (individual rats) [12]: BLQ; calculated concentration in rat plasma (individual rats) [13]: BLQ; Average Concentration [25]: 71.65 ng/mL; Average Concentration [26]: 64.97 ng/mL; Average Concentration [27]: 30.98 ng/mL; Average Concentration [28]: 2.58 ng/mL; Average Concentration [12]: BLQ; Average Concentration [13]: BLQ
17.6	13840	18.1	19943	461.83	682.50	845.83	817.33	205.50 ng/mL	596.00	637.50	CCn1c(C#CCNc2ccc(F)cc2)cc2cc(CNC)ccc21 [Compound 5, 3-{1-Ethyl-5-[(methylamino)methyl]-1H-indol-2-yl}-1-(p-fluorophenylamino)-2-propyne]	576 ng/mL and 407 ng/mL and 342 ng/mL and 649 ng/mL and 486 ng/mL and 311 ng/mL	1050 ng/mL and 561 ng/mL and 617 ng/mL and 665 ng/mL and 630 ng/mL and 572 ng/mL	732 ng/mL and 850 ng/mL and 1120 ng/mL and 738 ng/mL and 774 ng/mL and 861 ng/mL	941 ng/mL and 742 ng/mL and 901 ng/mL and 752 ng/mL and 872 ng/mL and 696 ng/mL	532 ng/mL and 434 ng/mL and 580 ng/mL and 539 ng/mL and 753 ng/mL and 738 ng/mL	513 ng/mL and 639 ng/mL and 761 ng/mL and 625 ng/mL and 671 ng/mL and 616 ng/mL	789 ng/mL and 675 ng/mL and 859 ng/mL and 1010 ng/mL and 887 ng/mL and 701 ng/mL	619 ng/mL and 737 ng/mL and 807 ng/mL and 812 ng/mL and 881 ng/mL and 772 ng/mL	216 ng/mL and 376 ng/mL and 234 ng/mL and 486 ng/mL and 477 ng/mL and 484 ng/mL	calculated concentration in rat plasma (individual rats) [5]: 218 ng/mL and 144 ng/mL and 208 ng/mL and 266 ng/mL and 246 ng/mL and 151 ng/mL; calculated concentration in rat plasma (individual rats) [11]: 6.57 ng/mL and 22.4 ng/mL and 13.6 ng/mL and 55.0 ng/mL and 27.3 ng/mL and 31.2 ng/mL; calculated concentration in rat plasma (individual rats) (Compound 2 50 mg/kg PO QD×10, 72 h post tenth dose, 50 mg/kg): 3.25 ng/mL and 2.30 ng/mL and BLQ (3×) and 17.3 ng/mL; calculated concentration in rat plasma (individual rats) (Compound 2 50 mg/kg PO QD×10, 96 h post tenth dose, 50 mg/kg): BLQ (5×) and 1.27 ng/mL; AUC0-24 [29]: 13,840 ng·h/mL; percent of the parent Compound 2 AUC0-24 [29]: 17.6%; Average Concentration [25]: 820.17 ng/mL; Average Concentration [26]: 771.33 ng/mL; Average Concentration [27]: 378.83 ng/mL; Average Concentration [28]: 26.01 ng/mL; Average Concentration [12]: 7.62 ng/mL; Average Concentration [13]: 1.27 ng/mL; AUC0-last [30]: 19,943 ng·h/mL; percent of parent AUC0-last [30]: 18.1%
											CCn1c(C#CCNc2ccc(F)cc2)cc2cc(CNC3CCOCC3)ccc21 [Compound 6, 3-{1-Ethyl-5-[(tetrahydro-2H-pyran-4-ylmino)methyl]-1H-indol-2-yl}-1-(p-fluorophenylamino)-2-propyne]										AUC0-24 (rat, in vivo, po, 50 mg/kg): 377 ng·h/mL; AUC0-last (rat, in vivo, po, 50 mg/kg): 389 ng·h/mL
0.0	16	0.0	28	1.37	2.20	2.15	2.50	BLQ	1.53	1.81	CCn1c(C#CCNc2ccc(Cl)cc2)cc2cc(CNC3CCN(C)CC3)ccc21 [Compound 7, 1-(p-Chlorophenylamino)-3-{1-ethyl-5-[(1-methyl-4-piperidylamino)methyl]-1H-indol-2-yl}-2-propyne]	1.44 ng/mL and 1.36 ng/mL and 1.19 ng/mL and 1.33 ng/mL and 1.49 ng/mL and 1.39 ng/mL	4.12 ng/mL and 1.95 ng/mL and 1.67 ng/mL and 1.93 ng/mL and 1.81 ng/mL and 1.70 ng/mL	2.46 ng/mL and 2.66 ng/mL and 2.27 ng/mL and 1.68 ng/mL and 1.81 ng/mL and 2.04 ng/mL	3.52 ng/mL and 2.72 ng/mL and 2.19 ng/mL and 2.24 ng/mL and 2.20 ng/mL and 2.11 ng/mL	1.25 ng/mL and 1.46 ng/mL and 1.42 ng/mL and 1.49 ng/mL and 1.92 ng/mL and 1.65 ng/mL	1.81 ng/mL and 2.19 ng/mL and 1.99 ng/mL and 1.41 ng/mL and 1.79 ng/mL and 1.66 ng/mL	2.46 ng/mL and 2.18 ng/mL and 2.20 ng/mL and 2.42 ng/mL and 2.00 ng/mL and 1.30 ng/mL	2.31 ng/mL and 2.45 ng/mL and 2.79 ng/mL and 1.81 ng/mL and 2.20 ng/mL and 2.21 ng/mL	BLQ (3×) and 1.07 ng/mL and 1.06 ng/mL and 1.16 ng/mL	calculated concentration in rat plasma (individual rats) [22]: BLQ; calculated concentration in rat plasma (individual rats) [28]: BLQ; calculated concentration in rat plasma (individual rats) [12]: BLQ; calculated concentration in rat plasma (individual rats) [13]: BLQ; Average Concentration [25]: 2.09 ng/mL; Average Concentration [26]: 2.30 ng/mL; Average Concentration [27]: 1.10 ng/mL; Average Concentration [28]: BLQ; Average Concentration [12]: BLQ; Average Concentration [13]: BLQ
